The target in the first test is T1, active-type human chymase (Homo sapiens, UniProt P23946).
T1 construct: made in house
T1 sequence (P23946 22-247): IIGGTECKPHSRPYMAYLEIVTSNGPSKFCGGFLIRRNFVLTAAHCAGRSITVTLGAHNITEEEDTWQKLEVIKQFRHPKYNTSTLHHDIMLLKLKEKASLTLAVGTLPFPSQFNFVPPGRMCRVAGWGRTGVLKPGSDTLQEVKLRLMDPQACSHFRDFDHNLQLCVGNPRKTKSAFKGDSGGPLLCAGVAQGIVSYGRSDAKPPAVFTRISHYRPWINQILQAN
Kind of test: Chymase inhibitory activity (Test Example 1; hydrolysis of succinyl-alanyl-histidyl-prolyl-phenylalanyl-p-nitroanilide, absorbance at 405 nm). The conditions noted are these: recombinant active-type human chymase, 0.5 mM p-nitroanilide substrate, Buffer A pH 8.0, room temperature, 5 minutes; read-out: Chymase inhibitory activity IC50 (molar concentration). In kind it is biochemical. The protocol:
• (a) The preparation of the enzyme chymase was carried out as follows. That is, a recombinant pro-type human chymase to be used had been prepared in accordance with the method of Urata et al's report [“J. Biol. Chem.”, Vol.266, p.17173 (1991)]. Further, the chymase product as preliminarily purified was activated in accordance with the method of Murakami et al's report [“J. Biol. Chem.”, Vol.270, p.2218 (1991)]. The resulting activated chymase product was purified with heparin Sepharose to afford an active-type human chymase. • (b) To 50 μl of Buffer A (comprising 0.5-3.0M NaCl and 50 mM tris-HCl, pH 8.0) containing 1-5 ng of the active-type human chymase as obtained by the above-mentioned methods, was added 2 μl of a solution in […] which contained an indole derivative of this invention as the substance to be tested. Then, to the resultant mixture, there was added 50 μl of Buffer A containing 0.5 mM of succinyl-alanyl-histidyl-prolyl-phenylalanyl-p-nitroanilide (a product of Backem Co.) as the substrate. The resulting reaction mixture was incubated at room temperature for 5 minutes. The chymase inhibitory activity was assessed by measuring the changes in the absorbance of a light at 405 nm of the resulting reaction solution with the passage of time. The chymase inhibitory activity of the indole derivatives tested of this invention was evaluated in term of IC50 values (in molar concentration, M).
The indole derivatives of this invention as tested in this Example are the compounds of Compound No. 003, 021, 026, 027, 030, 076 and 078 shown in Table 1 above.
In the case of `CC(=O)OCCc1c(C(c2cccc(Br)c2)c2c(O)c3ncsc3n(C)c2=O)[nH]c2ccccc12` (stereo not shown) [Compound No. 076], the IC50 worked out at 0.893 nM.

`Cn1c(=O)c(C(c2cccc(Br)c2)c2[nH]c3ccccc3c2CCNS(=O)(=O)c2ccc3ccccc3c2)c(O)c2ccccc21` (stereo not shown) [Compound No. 026]: the IC50 was 0.439 nM.

With `Cn1c(=O)c(C(c2cccc(F)c2)c2[nH]c3ccccc3c2CCNC(=O)c2cc(C(F)(F)F)cc(C(F)(F)F)c2)c(O)c2ccccc21` (stereo not shown) [compound 003], the IC50 was determined as 2.64 nM.

Consider `Cn1c(=O)c(C(c2ccc(OC(F)(F)F)cc2)c2[nH]c3ccccc3c2CCNS(=O)(=O)c2ccc3ccccc3c2)c(O)c2ccccc21` (stereo not shown) [Compound No. 027], for which the IC50 came to 5.11 nM.

In the case of `CC(=O)NCCc1c(C(c2ccccc2OC(C)=O)c2c(O)c3ccccc3n(C)c2=O)[nH]c2ccccc12` (stereo not shown) [Compound No. 078], the IC50 was 1.86 nM.

For the compound `COc1ccc(C(=O)OCCc2c(C(c3ccc(C(F)(F)F)cc3)c3c(O)c4ccccc4n(C)c3=O)[nH]c3ccccc23)cc1OC` (stereo not shown) [Compound No. 021], the IC50 stood at 1.4 nM.

On to `Cn1c(=O)c(C(c2ccc(OC(F)(F)F)cc2)c2[nH]c3ccccc3c2CCOC(=O)c2ccccc2)c(O)c2ccccc21` (stereo not shown) [Compound No. 030], for which the IC50 stood at 0.587 nM.

The target of a further test is T2, chymase (Homo sapiens, UniProt P23946).
T2 sequence (P23946 22-247): T1 sequence (P23946 22-247)
Assay: not given
The settings on record: confirmed in PCT/JP99/06738 (WO 00/32587); cited from earlier work.
As for `CC(=O)NCCc1c(Cc2c(O)c3ccccc3n(C)c2=O)[nH]c2ccccc12` [SF2809-I], the “chymase inhibitory activity (in words)” value is reported as “has a chymase inhibitory activity”.

As to `Cn1c(=O)c(Cc2[nH]c3ccccc3c2CCO)c(O)c2ccccc21` [SF2809-III], the “chymase inhibitory activity (in words)” value is listed as “has a chymase inhibitory activity”.

`Cn1c(=O)c(C(c2ccc(O)cc2)c2[nH]c3ccccc3c2CCO)c(O)c2ccccc21` (stereo not shown) [SF2809-IV]: the “chymase inhibitory activity (in words)” value is reported as “has a chymase inhibitory activity”.

Regarding `CC(=O)NCCc1c(C(c2ccccc2)c2c(O)c3ccccc3n(C)c2=O)[nH]c2ccccc12` (stereo not shown) [SF2809-V], the “chymase inhibitory activity (in words)” value is listed as “has a chymase inhibitory activity”.

On to `Cn1c(=O)c(C(c2ccccc2)c2[nH]c3ccccc3c2CCO)c(O)c2ccccc21` (stereo not shown) [SF2809-VI], for which the “chymase inhibitory activity (in words)” value is “has a chymase inhibitory activity”.

On to `CC(=O)NCCc1c(C(c2ccc(O)cc2)c2c(O)c3ccccc3n(C)c2=O)[nH]c2ccccc12` (stereo not shown) [SF2809-II], for which the “chymase inhibitory activity (in words)” value is given as “has a chymase inhibitory activity”.
